Counter-ions that a name gives are not always drawn. Like-named read-outs stand apart in the source and are kept apart here. One block for each compound: values may come before it. Numbered stars: 1 amine (or outer) side, 2 acyl side, 3 side chain; on linkers, the order of the positions; unused ones are H or OH. Square brackets hold non-standard residues; d marks the D form. Peptide text beside a SMILES is read from it. X8 = Cn1c[n+](C)cc1C[C@@H](N[*:1])C(=O)[*:2]; d2Nal = N[C@H](Cc1ccc2ccccc2c1)C(=O)O; dNMeH = CN[C@H](Cc1c[nH]cn1)C(=O)O; NMeI = CC[C@H](C)[C@H](NC)C(=O)O; X6 = O=C([C@H]1CCCNN1[*:1])[*:2]; dNMeF = CN[C@H](Cc1ccccc1)C(=O)O; Pip = O=C(O)[C@@H]1CCCCN1; dPip = O=C(O)[C@H]1CCCCN1; Nle = CCCC[C@H](N)C(=O)O; dNMeA = CN[C@H](C)C(=O)O
Key:
AVP-V2 sites = target: T1, AVP-V2 sites (Rattus norvegicus, UniProt Q00788); assay: [^3 H]AVP binding to crude membrane preparation of male rat kidney medulla (AVP-V2 sites)
T1 construct: male rat liver (AVP-V1 sites) or kidney medulla (AVP-V2 sites); from tissue; host or cells: male rat kidney medulla, crude membranes
Experimental: (§1) Nonspecific binding (5-10% of the total binding) was determined using 10 μM unlabeled AVP, and the binding reaction was terminated by filtration as described above for the [^3 H]OT binding assay.

AVP-V1 sites = target: T2, AVP-V1 sites (Rattus norvegicus, UniProt P30560); assay: [^3 H]AVP binding to crude membrane preparation of male rat liver (AVP-V1 sites)
T2 construct: crude membrane preparation of male rat liver (AVP-V1 sites); from tissue; host or cells: male rat liver, crude membranes
Experimental: as §1

uterine OT receptors = target: T3, uterine OT receptors (Rattus norvegicus, UniProt P70536); assay: [^3 H]OT binding to uterine OT receptors, crude membrane preparation of uteri from DES-treated rats
T3 construct: from tissue; host or cells: uterus of DES-treated rats, crude membranes
T3 sequence (P70536 1-388): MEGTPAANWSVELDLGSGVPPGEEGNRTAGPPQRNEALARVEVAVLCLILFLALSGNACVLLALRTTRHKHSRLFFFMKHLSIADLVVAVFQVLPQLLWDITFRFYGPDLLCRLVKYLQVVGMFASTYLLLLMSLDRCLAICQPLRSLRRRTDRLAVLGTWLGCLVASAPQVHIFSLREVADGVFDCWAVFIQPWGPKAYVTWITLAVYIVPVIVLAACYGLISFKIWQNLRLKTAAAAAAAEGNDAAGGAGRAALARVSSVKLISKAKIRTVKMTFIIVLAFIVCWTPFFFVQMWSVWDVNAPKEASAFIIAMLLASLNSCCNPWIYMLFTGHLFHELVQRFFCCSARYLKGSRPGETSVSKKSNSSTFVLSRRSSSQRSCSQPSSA
Experimental: Competition studies were conducted at equilibrium (60 minutes; 22° C.) using 1 nM [^3 H]OT in the following assay buffer: 50 mM Tris-HCl, 5 mM MgCl2, and 0.1% BSA, pH 7.4.

[1] = rat kidney medulla membranes, 2 nM [^3 H]AVP, read-out: Receptor Binding Results IC50 (nM) [^3 H]-AVP-V2
[2] = Receptor Binding Results IC50 (nM) [^3 H]-AVP-V1
[3] = Receptor Binding Results IC50 (nM) [^3 H]OT
[4] = rat uterus membranes, 1 nM [^3 H]OT, read-out: Receptor Binding Results IC50 (nM) [^3 H]OT
[5] = Receptor Binding Results IC50 (nM) [^3 H]-AVP-V2
[6] = read-out: Receptor Binding Results IC50 (nM) [^3 H]-AVP-V1

T1 sequence (Q00788 whole entry): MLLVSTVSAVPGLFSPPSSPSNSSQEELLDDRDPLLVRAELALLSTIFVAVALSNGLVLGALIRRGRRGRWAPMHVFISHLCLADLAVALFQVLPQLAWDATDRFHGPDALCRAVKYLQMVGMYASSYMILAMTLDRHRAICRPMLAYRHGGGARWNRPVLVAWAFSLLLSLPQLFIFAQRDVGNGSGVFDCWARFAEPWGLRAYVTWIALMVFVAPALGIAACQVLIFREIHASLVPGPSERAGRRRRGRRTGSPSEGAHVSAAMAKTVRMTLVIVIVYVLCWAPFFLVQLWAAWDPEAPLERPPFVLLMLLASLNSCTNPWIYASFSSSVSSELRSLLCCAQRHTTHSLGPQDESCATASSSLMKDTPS
T2 sequence (P30560 whole entry): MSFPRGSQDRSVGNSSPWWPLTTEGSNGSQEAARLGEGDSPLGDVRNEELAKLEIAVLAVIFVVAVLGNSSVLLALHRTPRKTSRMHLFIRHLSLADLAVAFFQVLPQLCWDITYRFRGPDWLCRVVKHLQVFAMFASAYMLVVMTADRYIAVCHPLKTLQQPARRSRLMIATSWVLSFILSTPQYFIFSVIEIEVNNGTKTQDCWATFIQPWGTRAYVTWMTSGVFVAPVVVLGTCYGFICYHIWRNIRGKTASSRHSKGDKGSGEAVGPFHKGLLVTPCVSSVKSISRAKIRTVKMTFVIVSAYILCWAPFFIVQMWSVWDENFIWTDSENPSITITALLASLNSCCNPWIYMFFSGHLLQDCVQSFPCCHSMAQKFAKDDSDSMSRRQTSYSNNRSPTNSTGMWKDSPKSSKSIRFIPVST

SMILES: CC[C@H](C)[C@@H]1NC(=O)[C@@H](Cc2ccccc2)NC(=O)[C@@H]2CCCN2C(=O)[C@@H](C)N(C)C(=O)[C@@H]2CCCCN2C(=O)[C@H]2CCCCN2C1=O [Example 5, Cyclo[D-phenyalanyl-L-isoleucyl-D-pipecolyl-L-pipecolyl-D-(N^α methyl)alanyl-L-prolyl]] (cyclo(I[dPip][Pip][dNMeA]P[dF]))
IC50 (AVP-V2 sites; [1]): > 10000 nM | IC50 (AVP-V1 sites; [2]): > 10000 nM | IC50 (uterine OT receptors; [3]): 930 nM

SMILES: CC[C@H](C)[C@@H]1NC(=O)[C@@H](Cc2ccccc2)NC(=O)[C@@H]2CCCN2C(=O)[C@@H](Cc2ccccc2)N(C)C(=O)[C@@H](C)N(C)C(=O)[C@H]2CCCCN2C1=O [Example 6, Cyclo[D-phenyalanyl-L-isoleucyl-D-pipecolyl-L-(N^α -methyl)alanyl-D-(N^α Methyl)phenylanyl-L-prolyl]] (cyclo([dF]I[dPip][dNMeA][dNMeF]P))
IC50 (AVP-V2 sites; [1]): > 10000 nM | IC50 (AVP-V1 sites; [2]): > 10000 nM | IC50 (uterine OT receptors; [4]): 1800 nM

SMILES: CC[C@H](C)[C@@H]1NC(=O)[C@@H](Cc2ccccc2)NC(=O)[C@@H]2CCCN2C(=O)[C@@H](Cc2ccccc2)N(C)C(=O)[C@@H]2CCCN2C(=O)[C@H]2CCCCN2C1=O [Example 7, Cyclo[D-phenylalanyl-L-isolelucyl-D-pipecolyl-L-propyl-D-(N^α Methyl)phenyl-L-prolyl]] (cyclo(I[dPip]P[dNMeF]P[dF]))
IC50 (AVP-V2 sites; [1]): > 10000 nM | IC50 (AVP-V1 sites; [2]): > 10000 nM | IC50 (uterine OT receptors; [3]): 350 nM

SMILES: CC[C@H](C)[C@@H]1NC(=O)[C@@H](Cc2ccccc2)NC(=O)[C@@H]2CCCN2C(=O)[C@@H](Cc2ccccc2)N(C)C(=O)[C@@H]2CCCCN2C(=O)[C@@H](C)N(C)C1=O [Example 8, Cyclo[D-Phenylalanyl-L-isoleucyl-D-(N^α methyl)alanyl-L-pipecolyl-D-(N^α methyl)phenylanyl-L-prolyl]] (cyclo(I[dNMeA][Pip][dNMeF]P[dF]))
IC50 (AVP-V2 sites; [1]): > 10000 nM | IC50 (AVP-V1 sites; [2]): > 10000 nM | IC50 (uterine OT receptors; [4]): 850 nM

SMILES: C[C@@H]1NC(=O)[C@@H](Cc2ccccc2)NC(=O)[C@@H]2CCCN2C(=O)[C@@H](Cc2ccccc2)N(C)C(=O)[C@@H]2CCCCN2C(=O)[C@H]2CCCCN2C1=O [Example 9, Cyclo[D-phenylalanyl-L-alanyl-D-pipecolyl-L-pipecolyl-D-(N^α methyl)phenylalanyl-L-prolyl]] (cyclo(A[dPip][Pip][dNMeF]P[dF]))
IC50 (AVP-V2 sites; [1]): > 10000 nM | IC50 (AVP-V1 sites; [2]): > 10000 nM | IC50 (uterine OT receptors; [4]): > 10000 nM

SMILES: CC[C@H](C)[C@@H]1NC(=O)[C@@H](Cc2ccc3ccccc3c2)NC(=O)[C@@H]2CCCN2C(=O)[C@@H](Cc2c[nH]cn2)NC(=O)[C@@H]2CCCCN2C(=O)[C@H]2CCCCN2C1=O [Example 12, Cyclo[D-2-naphthalalanyl-L-isoleucyl-D-pipecolyl-L-pipecolyl-D-histidyl-L-prolyl]] (cyclo(I[dPip][Pip][dH]P[d2Nal]))
IC50 (AVP-V2 sites; [5]): > 1000 nM | IC50 (AVP-V1 sites; [2]): > 1000 nM | IC50 (uterine OT receptors; [4]): 1.2 nM

SMILES: CC[C@H](C)[C@@H]1NC(=O)[C@@H](Cc2ccccc2)NC(=O)[C@@H]2CCCN2C(=O)[C@@H](Cc2ccccc2)N(C)C(=O)[C@H](Cc2cnc[nH]2)NC(=O)[C@H]2CCCCN2C1=O [Example 13] (cyclo(H[dNMeF]P[dF]I[dPip]))
IC50 (AVP-V2 sites; [5]): > 1000 nM | IC50 (AVP-V1 sites; [2]): > 1000 nM | IC50 (uterine OT receptors; [4]): 150 nM

IC50 (AVP-V2 sites; read-out: Receptor Binding Results IC50 (nM) [^3 H]-AVP-V2): > 10000 nM | IC50 (AVP-V1 sites; [6]): 10000 nM | IC50 (uterine OT receptors; [4]): 38 nM
SMILES: CC[C@H](C)[C@@H]1NC(=O)[C@@H](Cc2ccccc2)NC(=O)[C@@H]2CCCN2C(=O)[C@@H](Cc2c[nH]cn2)NC(=O)[C@@H]2CCCCN2C(=O)[C@H]2CCCNN2C1=O [Example 14, Cyclo[D-phenylalanyl-L-isoleucyl-D-piperazyl-L-pipecolyl-D-histidyl-L-prolyl]] (cyclo(I[X6][Pip][dH]P[dF]))

SMILES: CC[C@H](C)[C@H]1C(=O)N2CCCC[C@@H]2C(=O)N2CCCC[C@H]2C(=O)N(C)[C@H](Cc2ccccc2)C(=O)N2CCC[C@H]2C(=O)N(C)[C@H](Cc2ccccc2)C(=O)N1C [Example 15, C-[D-(N^α methyl)phenylalanyl-L-(N^α methyl)isoleucyl-D-pipecolyl-L-pipecolyl-D-(N^α methyl)phenylalanyl-L-prolyl]] (cyclo([NMeI][dPip][Pip][dNMeF]P[dNMeF]))
IC50 (AVP-V2 sites; [1]): > 10000 nM | IC50 (AVP-V1 sites; [2]): > 10000 nM | IC50 (uterine OT receptors; [4]): > 10000 nM

SMILES: CC[C@H](C)[C@H]1C(=O)N2CCCC[C@@H]2C(=O)N2CCCC[C@H]2C(=O)N(C)[C@H](Cc2ccccc2)C(=O)N2CCC[C@H]2C(=O)N(C)[C@H](C)C(=O)N1C [Example 16, C-[D-(N^α methyl)alanyl-L-(N^α methyl)isoleucyl-D-pipecolyl-L-pipecolyl-D-(N^α methyl)phenylalanyl-L-prolyl]] (cyclo([NMeI][dPip][Pip][dNMeF]P[dNMeA]))
IC50 (AVP-V2 sites; [1]): > 10000 nM | IC50 (AVP-V1 sites; [2]): > 10000 nM | IC50 (uterine OT receptors; [4]): 650 nM

SMILES: CC[C@H](C)[C@@H]1NC(=O)[C@@H](Cc2c[nH]c3ccccc23)NC(=O)[C@@H]2CCCN2C(=O)[C@@H](Cc2c[nH]cn2)NC(=O)[C@@H]2CCCCN2C(=O)[C@H]2CCCCN2C1=O [Example 17, C-[D-tryptophanyl-L-isolelucyl-D-pipecolyl-L-pipecolyl-D-histidyl-L-prolyl]] (cyclo(I[dPip][Pip][dH]P[dW]))
IC50 (AVP-V2 sites; [1]): 5400 nM | IC50 (AVP-V1 sites; [6]): 8200 nM | IC50 (uterine OT receptors; [3]): 14 nM

SMILES: CC[C@H](C)[C@@H]1NC(=O)[C@@H](Cc2c[nH]c3ccccc23)NC(=O)[C@@H]2CCCN2C(=O)[C@@H](Cc2c[n+](C)cn2C)NC(=O)[C@@H]2CCCCN2C(=O)[C@H]2CCCCN2C1=O [Example 18, Cyclo[D-tryptophanyl-L-isoleucyl-D-pipecolyl-L-pipecolyl-D-[im-(CH3)2]^+ histidyl-L-prolyl] trifluoroacetate] (cyclo(I[dPip][Pip][X8]P[dW]))
IC50 (AVP-V2 sites; [1]): > 10000 nM | IC50 (AVP-V1 sites; [2]): > 1000 nM | IC50 (uterine OT receptors; [4]): 450 nM

IC50 (AVP-V2 sites; [1]): 4330 nM | IC50 (AVP-V1 sites; [6]): 13700 nM | IC50 (uterine OT receptors; [4]): 18 nM
SMILES: CC[C@H](C)[C@@H]1NC(=O)[C@@H](Cc2c[nH]c3ccccc23)NC(=O)[C@@H]2CCCN2C(=O)[C@@H](Cc2c[nH]cn2)N(C)C(=O)[C@@H]2CCCCN2C(=O)[C@H]2CCCCN2C1=O [Example 19, Cyclo[D-tryptophanyl-L-isoleucyl-D-pipecolyl-L-pipecolyl-D-(N^α methyl)histidyl-L-prolyl]] (cyclo(I[dPip][Pip][dNMeH]P[dW]))

SMILES: CCCC[C@@H]1NC(=O)[C@@H](Cc2c[nH]c3ccccc23)NC(=O)[C@@H]2CCCN2C(=O)[C@@H](Cc2c[nH]cn2)NC(=O)[C@@H]2CCCCN2C(=O)[C@H]2CCCCN2C1=O [Example 20, Cyclo[D-tryptophanyl-L-Norleucyl-D-pipecolyl-L-pipecolyl-D-histidyl-L-prolyl]] (cyclo([Nle][dPip][Pip][dH]P[dW]))
IC50 (AVP-V2 sites; [5]): > 1000 nM | IC50 (AVP-V1 sites; [2]): > 1000 nM | IC50 (uterine OT receptors; [4]): 72 nM

SMILES: CC(C)C[C@@H]1NC(=O)[C@@H](Cc2c[nH]c3ccccc23)NC(=O)[C@@H]2CCCN2C(=O)[C@@H](Cc2c[nH]cn2)NC(=O)[C@@H]2CCCCN2C(=O)[C@H]2CCCCN2C1=O [Example 21, Cyclo[D-tryptophanyl-L-leucyl-D-pipecolyl-L-pipecolyl-D-histidyl-L-prolyl]] (cyclo(L[dPip][Pip][dH]P[dW]))
IC50 (AVP-V2 sites; [5]): > 10000 nM | IC50 (AVP-V1 sites; [2]): 10000 nM | IC50 (uterine OT receptors; [3]): 190 nM

— US5225528A, “Cyclic hexapeptide oxytocin antagonists” (priority 1990, dated 1993)
